What was measured:
[1] = test system: vascular smooth muscle cells; experiment: Proliferation of vascular smooth muscle cells in culture (BrdU); assay type: cell-based; conditions: 10^-5 M to 10^-8 M; for ABC-NP and ABC-NP1 all concentrations about the same effect, FIG. 21
Description: FIG. 21 is a graph plotting levels of proliferation of vascular smooth muscle cells after treatment with 10^−5 M, 10^−6 M, 10^−7 M, or 10^−8 M ANP, BNP, CNP, ABC-NP, or ABC-NP1, measured by assessing bromodeoxyuridine (BrdU) levels.

[2] = after administration to a mammal; cited from earlier work
[3] = test system: dogs with rapid ventricular pacing-induced overt heart failure with cardiorenal dysfunction; experiment: Cardiorenal and humoral actions of intravenous infusions in dogs with pacing-induced overt heart failure; assay type: in vivo, dog; conditions: for RAP: all doses (2, 10 and 100 pmol/kg/minute), FIG. 13; for MAP: FIG. 12; for PCWP: FIG. 14; for urinary sodium excretion (UNaV) / urine flow (UV): increasing doses 2, 10, 100 pmol/kg/minute; for glomerular filtration rate (GFR): FIG. 17; for renal blood flow: FIG. 18
Protocol: The cardiorenal and humoral actions of intravenous infusions of ABC-NP and ABC-NP1 at 2, 10, and 100 pmol/kg/minute were examined in seven dogs with rapid ventricular pacing-induced overt heart failure with cardiorenal dysfunction (240 bpm for 10 days). As shown in the study protocol depicted in FIG. 11, baseline values for MAP, RAP, PCWP, UNaV, UV, GFR, renal blood flow, urinary cGMP excretion, plasma and cGMP were measured, and animals were then infused with 2 pmol/kg/minute ABC-NP or ABC-NP1 for a lead in period of 15 minutes followed by 30 minutes, then infusion with 10 pmol/kg/minute ABC-NP or ABC-NP1 for a lead in period of 15 minutes followed by 30 minutes, and finally infusion with 100 pmol/kg/minute ABC-NP or ABC-NP1 for a lead in period of 15 minutes followed by 30 minutes, and washout for 30 minutes. Pressure measurements were taken at the end of each NP infusion period, and blood and urine samples also were collected for analysis.

[4] = test system: normal anesthetized dogs; experiment: Cardiorenal and humoral actions of intravenous bolus in normal anesthetized dogs; assay type: in vivo, dog; conditions: i.v. bolus 25 microgram/Kg; for reduction in right atrial pressure (RAP) / reduction in pulmonary capillary wedge pressure (PCWP): ABC-NP1 compared with ABC-NP; for reduction in right atrial pressure (RAP): FIG. 6; for reduction in pulmonary capillary wedge pressure (PCWP): FIG. 7; for urine flow (UV), diuresis: n=5, FIG. 3; for urinary sodium excretion (UNaV), natriuresis: n=5, FIG. 4; for mean arterial blood pressure (MAP): n=5, FIG. 5
Protocol: (§1) Cardiorenal and humoral actions of intravenous bolus administration of ABC-NP1 (n=5) and ABC-NP (n=5) at 25 microgram/Kg were evaluated in two separate groups of normal anesthetized dogs. The cGMP response of both peptides also was assessed in HAEC, HCF, and isolated canine glomeruli.

[5] = previously shown, cited from earlier work
[6] = test system: human aortic endothelial cells (HAEC); experiment: cGMP generation in cultured human aortic endothelial cells (HAEC); assay type: cell-based; conditions: FIG. 9, p<0.05
Description: (§2) Variant NPs having conservative and/or non-conservative substitutions (e.g., with respect to any of SEQ ID NOS:1 to 51), as well as fragments of any of SEQ ID NOS:1 to 51, fragments of variants of any of SEQ ID NOS:1 to 51, and polypeptides comprising any of SEQ ID NOS:1 to 51, variants or fragments of any of SEQ ID NOS:1 to 51, or fragments of variants of any of SEQ ID NOS:1 to 51, can be screened for biological activity using any of a number of assays, including those described herein. For example, the activity of a NP as described herein can be evaluated in vitro by testing its effect on cGMP production in cultured cells (e.g., cultured cardiac fibroblasts, aortic endothelial cells, or glomerular cells, as described in the Example herein). Cells can be exposed to a NP (e.g., 10^−9 to 10^−4 M NP), and samples can be assayed to evaluate the NP effects on cGMP generation. cGMP generation can be detected and measured using, for example, a competitive RIA cGMP kit (Perkin-Elmer, Boston, Mass.).
as §1

[7] = test system: isolated canine glomeruli; experiment: cGMP generation in isolated canine glomeruli; assay type: cell-based; conditions: comparison between the two peptides, FIG. 10
Description: A NP as provided herein can function through one or more of the guanylyl cyclase receptors through which the native NPs function. For example, in some embodiments, a NP as provided herein can bind to and function through the NPR-A receptor through which ANP and BNP function. In some cases, a NP as provided herein can function through the NPR-B receptor through which CNP functions. Further, in some cases, a NP as provided herein can bind to and function through more than one guanylyl cyclase receptor, including NPR-A and NPR-B, for example. Methods for evaluating which receptor is involved in function of a particular NP are known in the art. For example, glomeruli, which contain both NPR-A and NPR-B, can be isolated (e.g., from a laboratory animal such as a dog) and incubated with a NP (e.g., a native, chimeric, or mutated NP), and cGMP levels can be measured. Glomeruli can be pretreated with antagonists of NPR-A or NPR-B to determine whether cGMP production stimulated by a NP through one or the other receptor can be attenuated.
as §1

[8] = test system: human cardiac fibroblasts (HCF); experiment: cGMP generation in cultured human cardiac fibroblasts (HCF); assay type: cell-based; conditions: FIG. 8, p<0.05
Description: as §2, §1

[9] = HF dogs, highest dose (100 pmol/kg/minute), FIG. 19
[10] = HF dogs, highest dose (100 pmol/kg/minute), FIG. 20
[11] = HF dogs, i.v. infusion, highest dose (100 pmol/kg/minute)
[12] = HF dogs, two highest doses (10 and 100 pmol/kg/minute)

CC[C@H](C)[C@@H]1NC(=O)[C@H](CCCNC(=N)N)NC(=O)[C@H](CC(=O)O)NC(=O)[C@H](CCSC)NC(=O)[C@H](CCCNC(=N)N)NC(=O)CNC(=O)CNC(=O)[C@H](Cc2ccccc2)NC(=O)[C@@H](NC(=O)[C@H](CO)NC(=O)[C@H](CO)NC(=O)[C@H](CCCNC(=N)N)NC(=O)[C@H](CCCNC(=N)N)NC(=O)[C@H](CC(C)C)NC(=O)[C@@H](N)CO)CSSC[C@@H](C(=O)N[C@@H](CC(N)=O)C(=O)N[C@@H](CO)C(=O)N[C@@H](Cc2ccccc2)C(=O)N[C@@H](CCCNC(=N)N)C(=O)N[C@@H](Cc2ccc(O)cc2)C(=O)O)NC(=O)CNC(=O)[C@H](CC(C)C)NC(=O)CNC(=O)[C@H](CO)NC(=O)[C@H](CCC(N)=O)NC(=O)[C@H](C)NC(=O)CNC1=O [ANP, atrial natriuretic peptide]
proliferation of vascular smooth muscle cells (BrdU levels) [1]: decreased as the concentration decreased

B-type natriuretic peptide [BNP]
proliferation of vascular smooth muscle cells (BrdU levels) [1]: decreased as the concentration decreased

C-type natriuretic peptide [CNP]
half-life [2]: about a minute and a half | proliferation of vascular smooth muscle cells (BrdU levels) [1]: decreased as the concentration decreased

RMDRIGLSKGCFGLKLDRIGSMSGLGCKVLRRH [ABC-NP1]
effect on UNaV relative to ABC-NP ([3]; HF dogs, ABC-NP1 vs ABC-NP, FIG. 15): 5- to 6.5 fold | effect on UV relative to ABC-NP ([3]; HF dogs, ABC-NP1 vs ABC-NP, FIG. 16): 1.5- to 2 fold | urinary cGMP excretion [3, 9]: significantly increased | plasma cGMP [3, 10]: significantly increased | effect on urinary cGMP excretion relative to ABC-NP ([3]; HF dogs, highest dose, ABC-NP1 vs ABC-NP, FIG. 19): about a two-fold greater effect | effect on plasma cGMP relative to ABC-NP ([3]; HF dogs, highest dose, ABC-NP1 vs ABC-NP, FIG. 20): about a two-fold greater effect | RAP ([3]; HF dogs, i.v. infusion): significantly reduced | MAP [3, 11]: significantly reduced | PCWP [3, 11]: significantly reduced | urinary sodium excretion (UNaV) ([3]; HF dogs, FIG. 15): increasing effects | urine flow (UV) ([3]; HF dogs, FIG. 16): increasing effects | glomerular filtration rate (GFR) [3, 12]: significant increases | renal blood flow [3, 12]: significant increases | reduction in right atrial pressure (RAP) [4]: significantly greater | reduction in pulmonary capillary wedge pressure (PCWP) [4]: significantly greater | urine flow (UV), diuresis [4]: resulted in diuresis | urinary sodium excretion (UNaV), natriuresis [4]: natriuresis | mean arterial blood pressure (MAP) [4]: significant decrease | renal excretory actions ([5]; result of N- and C-terminal alterations): potent renal excretory actions | cardiac actions ([5]; similar to CNP): cardiac unloading actions | hypotensive effects ([5]; similar to CNP): mild hypotensive effects | proliferation of vascular smooth muscle cells (BrdU levels) [1]: reduced proliferation | cGMP generation [6]: significantly higher | cGMP generation [7]: similar | cGMP generation [8]: significantly higher

RMDRIGLSKGCFGLKLDRIREASGLGCKVLRRH [ABC-NP, ANP residues 11-15, mutated CNP in which GSM15-17 were changed to REA, and six C-terminal amino acids of BNP]
glomerular filtration rate (GFR) ([3]; HF dogs, 2, 10, 100 pmol/kg/minute, significant increase only at highest dose): significance was not achieved with ABC-NP until the highest dose was used | renal blood flow ([3]; HF dogs, 2, 10 and 100 pmol/kg/minute): no effect | urinary cGMP excretion [3, 9]: significantly increased | plasma cGMP [3, 10]: significantly increased | MAP ([3]; HF dogs, i.v. infusion 2, 10 and 100 pmol/kg/minute): no effect | RAP ([3]; HF dogs, i.v. infusion): increased | PCWP ([3]; HF dogs, i.v. infusion, higher doses (10 and 100 pmol/kg/minute)): did not affect | PCWP ([3]; HF dogs, i.v. infusion, lowest dose (2 pmol/kg/minute), vs baseline): reduced PCWP as compared to baseline | urinary sodium excretion (UNaV) ([3]; HF dogs, FIG. 15): increasing effects | urine flow (UV) ([3]; HF dogs, FIG. 16): increasing effects | reduction in right atrial pressure (RAP) [4]: reduction | reduction in pulmonary capillary wedge pressure (PCWP) [4]: reduction | urine flow (UV), diuresis [4]: resulted in diuresis | urinary sodium excretion (UNaV), natriuresis [4]: natriuresis | mean arterial blood pressure (MAP) [4]: no change | proliferation of vascular smooth muscle cells (BrdU levels) [1]: reduced proliferation | cGMP generation [6]: minimal | cGMP generation [7]: similar | cGMP generation [8]: minimal

Reference: patent publication US20120053123A1, “NATRIURETIC POLYPEPTIDES HAVING MUTATIONS WITHIN THEIR DISULFIDE RINGS” (priority 2009, published 2012)
